Data on six compounds can be found in ChEMBL document CHEMBL5724914, “Linking interpersonal differences in gut microbiota composition and drug biotransformation activity” (2024).

For series [1] the following is noted: human gut metagenome, 24 h, 2 µM.
Series [2] in a line: The drug is tested on Z-007 corresponding to rat gut metagenome with ENA study accession number: PRJEB37062 and ENA sample accession number: ERS12561807 for biotransformation under anaerobic condition. The drug concentrations were measured over 9 timepoints collected between 0 and 24 hours of incubation by liquid-chromatography-coupled mass spectrometry (LC–MS). Particulars: 2 µM.

The conditions of series [3]: human gut metagenome, 24 h, 2 µM. The source holds these as a separate data set.
A short description of series [4]: The drug is tested on WLS-007 corresponding to human gut metagenome with ENA study accession number: PRJEB37062 and ENA sample accession number: ERS12561742 for biotransformation under anaerobic condition. The drug concentrations were measured over 9 timepoints collected between 0 and 24 hours of incubation by liquid-chromatography-coupled mass spectrometry (LC–MS). Particulars: 2 µM.

Series [5] in a line: The drug is tested on Z-021 corresponding to metagenome with ENA study accession number: PRJEB37062 and ENA sample accession number: ERS12561820 for biotransformation under anaerobic condition. The drug concentrations were measured over 9 timepoints collected between 0 and 24 hours of incubation by liquid-chromatography-coupled mass spectrometry (LC–MS). Particulars: 2 µM.
The conditions of series [6]: human gut metagenome, 24 h, 2 µM. The source holds these as a separate data set.
Series [7] is described as follows: The drug is tested on Z-022 corresponding to mouse gut metagenome with ENA study accession number: PRJEB37062 and ENA sample accession number: ERS12561821 for biotransformation under anaerobic condition. The drug concentrations were measured over 9 timepoints collected between 0 and 24 hours of incubation by liquid-chromatography-coupled mass spectrometry (LC–MS). As to conditions: 2 µM.

For series [8] the following is noted: human gut metagenome, 24 h, 2 µM. This is another data set of the same source.
Series [9] is described as follows: The drug is tested on Z-027 corresponding to metagenome with ENA study accession number: PRJEB37062 and ENA sample accession number: ERS12561826 for biotransformation under anaerobic condition. The drug concentrations were measured over 9 timepoints collected between 0 and 24 hours of incubation by liquid-chromatography-coupled mass spectrometry (LC–MS). As to conditions: 2 µM.

For series [10] the following is noted: human gut metagenome, 24 h, 2 µM. This is another data set of the same source.
For series [11] the following is noted: human gut metagenome, 24 h, 2 µM. This is another data set of the same source.
For series [12] the following is noted: human gut metagenome, 24 h, 2 µM. The source holds these as a separate data set.
For series [13] the following is noted: human gut metagenome, 24 h, 2 µM. This is another data set of the same source.
Series [14] in a line: The drug is tested on Z-023 corresponding to metagenome with ENA study accession number: PRJEB37062 and ENA sample accession number: ERS12561822 for biotransformation under anaerobic condition. The drug concentrations were measured over 9 timepoints collected between 0 and 24 hours of incubation by liquid-chromatography-coupled mass spectrometry (LC–MS). Particulars: 2 µM.

The conditions of series [15]: human gut metagenome, 24 h, 2 µM. The source holds these as a separate data set.
The conditions of series [16]: human gut metagenome, 24 h, 2 µM. The source holds these as a separate data set.
The nature of series [17]: The drug is tested on WLS-350 corresponding to human gut metagenome with ENA study accession number: PRJEB37062 and ENA sample accession number: ERS12561789 for biotransformation under anaerobic condition. The drug concentrations were measured over 9 timepoints collected between 0 and 24 hours of incubation by liquid-chromatography-coupled mass spectrometry (LC–MS). As to conditions: 2 µM.

Series [18] in a line: The drug is tested on Z-010 corresponding to metagenome with ENA study accession number: PRJEB37062 and ENA sample accession number: ERS12561810 for biotransformation under anaerobic condition. The drug concentrations were measured over 9 timepoints collected between 0 and 24 hours of incubation by liquid-chromatography-coupled mass spectrometry (LC–MS). As to conditions: 2 µM.

The conditions of series [19]: human gut metagenome, 24 h, 2 µM. The source holds these as a separate data set.
The conditions of series [20]: human gut metagenome, 24 h, 2 µM. This is another data set of the same source.
Note: call rule not given here.

Regarding `COc1ccc2c(c1OC)C(=O)O[C@@H]2[C@H]1c2c(cc3c(c2OC)OCO3)CCN1C` [NOSCAPINE], the “Bacterial Biotransformation” value was “Compound NOT metabolized” in series [1]; “Compound NOT metabolized” in series [2]; “Compound metabolized” in series [3]; “Compound NOT metabolized” in series [4]; “Compound NOT metabolized” in [5]; “Compound NOT metabolized” in series [6]. For the same compound, the “Bacterial Biotransformation” value in series [7] is on record as “Compound metabolized”; in series [8], “Compound metabolized”; in [9] it was “Compound NOT metabolized”; in series [10] it was “Compound NOT metabolized”; in series [11], “Compound NOT metabolized”; in series [12], “Compound NOT metabolized”. For the same compound, the “Bacterial Biotransformation” value in series [13] is given as “Compound NOT metabolized”; in series [14], “Compound metabolized”; in series [15], “Compound metabolized”; in [16] it was “Compound NOT metabolized”; in [17], “Compound metabolized”; in series [18] it was “Compound metabolized”. For the same compound, the “Bacterial Biotransformation” value is given as “Compound metabolized” in series [19] and “Compound NOT metabolized” in series [20].
Take `CCCc1nc(C(C)(C)O)c(C(=O)OCc2oc(=O)oc2C)n1Cc1ccc(-c2ccccc2-c2nnn[nH]2)cc1` [OLMESARTAN MEDOXOMIL]: the “Bacterial Biotransformation” value in series [1] is listed as “Compound metabolized”; in series [2] it was “Compound metabolized”; in series [3], “Compound NOT metabolized”; in series [4], “Compound metabolized”; in series [5], “Compound metabolized”; in [6], “Compound metabolized”. The “Bacterial Biotransformation” value was “Compound metabolized” in series [7]; “Compound metabolized” in series [8]; “Compound NOT metabolized” in series [9]; “Compound metabolized” in [10]; “Compound metabolized” in [11]; “Compound metabolized” in series [12]. The “Bacterial Biotransformation” value is “Compound metabolized” in [13]; “Compound metabolized” in series [14]; “Compound NOT metabolized” in [15]; “Compound metabolized” in series [16]; “Compound NOT metabolized” in series [17]; “Compound metabolized” in [18]. Moreover, the “Bacterial Biotransformation” value was “Compound NOT metabolized” in series [19] and “Compound metabolized” in series [20].
As to `CCN(CC)CC#CCOC(=O)C(O)(c1ccccc1)C1CCCCC1.Cl` (stereo not given) [OXYBUTYNIN CHLORIDE], the “Bacterial Biotransformation” value is reported as “Compound NOT metabolized” in series [1]; “Compound NOT metabolized” in [2]; “Compound metabolized” in series [3]; “Compound metabolized” in series [4]; “Compound metabolized” in series [5]; “Compound metabolized” in series [6]. The “Bacterial Biotransformation” value in series [7] is on record as “Compound metabolized”; in series [8], “Compound NOT metabolized”; in series [9], “Compound NOT metabolized”; in [10], “Compound metabolized”; in [11], “Compound metabolized”; in series [12] it was “Compound metabolized”. The “Bacterial Biotransformation” value in series [13], in series [14], in series [15], in series [16], in [17] and in series [18] was “Compound metabolized” throughout. For the same compound, the “Bacterial Biotransformation” value in [19] and in [20] was “Compound metabolized” each time.
For `Fc1ccc([C@@H]2CCNC[C@H]2COc2ccc3c(c2)OCO3)cc1` [PAROXETINE], the “Bacterial Biotransformation” value is reported as “Compound NOT metabolized” in series [1]; “Compound NOT metabolized” in [2]; “Compound metabolized” in series [3]; “Compound NOT metabolized” in series [4]; “Compound metabolized” in series [5]; “Compound NOT metabolized” in [6]. The “Bacterial Biotransformation” value is “Compound metabolized” in series [7]; “Compound metabolized” in series [8]; “Compound NOT metabolized” in series [9]; “Compound NOT metabolized” in series [10]; “Compound metabolized” in [11]; “Compound metabolized” in series [12]. The “Bacterial Biotransformation” value in series [13] is “Compound metabolized”; in series [14] it was “Compound metabolized”; in series [15], “Compound NOT metabolized”; in [16], “Compound NOT metabolized”; in series [17] it was “Compound metabolized”; in series [18] it was “Compound metabolized”. Also, the results for the “Bacterial Biotransformation” value in [19] and in [20] were “Compound metabolized” and “Compound NOT metabolized”, respectively.
Regarding `O=c1[nH]c2ccccc2n1C1CCN(CCCC(c2ccc(F)cc2)c2ccc(F)cc2)CC1` [PIMOZIDE], the “Bacterial Biotransformation” value was “Compound NOT metabolized” in series [1]; “Compound metabolized” in series [2]; “Compound metabolized” in series [3]; “Compound metabolized” in [4]; “Compound metabolized” in series [5]; “Compound NOT metabolized” in series [6]. The “Bacterial Biotransformation” value was “Compound NOT metabolized” in series [7]; “Compound NOT metabolized” in [8]; “Compound NOT metabolized” in series [9]; “Compound metabolized” in series [10]; “Compound metabolized” in series [11]; “Compound metabolized” in series [12]. The “Bacterial Biotransformation” value in series [13] is given as “Compound metabolized”; in series [14], “Compound NOT metabolized”; in [15], “Compound metabolized”; in series [16], “Compound metabolized”; in series [17], “Compound metabolized”; in series [18], “Compound metabolized”. Besides, the “Bacterial Biotransformation” value in series [19] and in [20] was “Compound metabolized” each time.
For `COc1cc2nc(N3CCN(C(=O)c4ccco4)CC3)nc(N)c2cc1OC` [PRAZOSIN], the “Bacterial Biotransformation” value in [1] is “Compound NOT metabolized”; in series [2] it was “Compound NOT metabolized”; in series [3], “Compound metabolized”; in [4], “Compound NOT metabolized”; in series [5] it was “Compound NOT metabolized”; in [6], “Compound NOT metabolized”. Further, the “Bacterial Biotransformation” value was “Compound NOT metabolized” in series [7]; “Compound NOT metabolized” in [8]; “Compound NOT metabolized” in series [9]; “Compound NOT metabolized” in series [10]; “Compound metabolized” in [11]; “Compound NOT metabolized” in series [12]. Further, the “Bacterial Biotransformation” value in series [13], in series [14], in series [15], in [16], in [17] and in series [18] was “Compound NOT metabolized” in each case. Further, the “Bacterial Biotransformation” value in series [19] is listed as “Compound metabolized”; in series [20], “Compound NOT metabolized”.
